Source: US10001483B2, “Methods for the treatment of Kaposi's sarcoma or KSHV-induced lymphoma using immunomodulatory compounds, and uses of biomarkers” (Celgene Corporation, priority 2015, dated 2018)
Marks after values point to notes of the source that are not given here.

Columns and labels:
[1] = patients; approved dose 4 mg; cited from earlier work
MHC-1 [2] = experiment: K3/K5 mediated MHC-1 down-regulation in K3 or K5 transfected KSHV-negative BJAB cells; assay type: cell-based
Method: FIGS. 9A-9E. […] 24 hours after electroporation, FACS analysis was done using half of the cells. […] The remaining cells were subjected to lysis, protein extraction, and western blot. Blots were probed with antibodies to the indicated proteins.

MHC-1 [3] = experiment: Butyrate induced (lytic KSHV activation) MHC-1 down-regulation in BCBL-1 cells, FACS and Western blot; assay type: cell-based; details: pretreatment 24 h before butyrate
Method: In addition, the effect of the immunomodulatory drugs on KSHV down-regulation of MHC-1 during lytic activation was investigated by FACS analysis after pretreating the cells with Immunomodulatory drugs prior to lytic activation with butyrate.
Flow Cytometry Analysis and Antibodies: For flow cytometry analysis of MHC-I expression, cells were plated at 400,000 cells/mL and pretreated with immunomodulatory agents as indicated. After twenty-four hours, cells were treated with butyrate at indicated amounts to induce lytic activation and down-regulation of MHC-I. After another twenty-four hours, cells were analyzed on FACS and extracts were prepared as indicated. For flow cytometry analysis, the cells, 1×105 per sample, were incubated with indicated conjugated monoclonal antibodies for 30 min at 4° C. After washing twice with PBS, cells were resuspended in PBS and flow cytometry analysis was performed with a FACSCalibur. FITC-conjugated antibodies to anti-HLA MHC Class I (Sigma-Aldrich) and PE-conjugated antibodies to anti-DR MHC Class II (BioLegend) were used for flow cytometry.

Kaposi sarcoma = experiment: Clinical study of pomalidomide in Kaposi sarcoma patients with and without HIV: KS responses by modified ACTG criteria; assay type: in vivo, human
Method: Enrollment: 22 patients (15 HIV positive and 7 HIV negative) median age 52 years (range 32-74) were studied. All patients with HIV were receiving antiretroviral therapy (ART) for median 48 months (7-227), HIV VL<50 copies/mL (all), and CD4 count 378 cells/μl (135-752). […] All were evaluable for response.
Aspirin at 81 mg daily was administered as thromboprophylaxis. Assessments were performed every 4 weeks for lymphocyte numbers, Kaposi sarcoma associated herpesvirus (KSHV/HHV8) viral load (VL) and HIV VL and at 8 weeks for T cell subsets and activation by immunophenotyping of peripheral blood mononuclear cells (PBMC). KSHV VL in PBMC and HIV VL in plasma were assayed by quantitative PCR; an ultrasensitive single copy assay was used for HIV VL. Changes from baseline were evaluated using the Wilcoxon signed rank test with P<0.005 considered significant given multiple comparisons. Differences in changes between the HIV infected and uninfected groups were evaluated using the Wilcoxon rank sum test. Median time of the patients on therapy 7 cycles (range 2-12).
Kaposi sarcoma responses: KS responses were evaluated every cycle and categorized as complete (CR), partial (PR), stable disease (SD), or progressive disease (PD) using modified ACTG criteria. To be evaluable for response, patients completed at least two cycles of therapy. Evaluations included lesion counts, measurement of the sum product of the diameters of five indicator lesions, assessment of nodularity, and measurement of limb circumference if tumor-associated edema was present. PR was considered as at least 50% decrease in number of lesions and/or sum product of the diameters of marker lesions and/or nodularity of lesions, and no new lesions in previously uninvolved areas nor criteria for PD. CR was considered as clinical resolution of all lesions and tumor-associated phenomenon, with biopsy confirmation. Both CR and PR had to be sustained for 4 weeks. Best response was evaluated for each patient.
Complete and partial responses are objective tumor responses by modified AIDS Clinical Trial Group Criteria for KS. Complete response also requires pathological confirmation. Individual responses are shown in FIG. 1A (maximal change in number of nodular lesions) and FIG. 1B (maximal change in total number of lesions). No decrease in quality of life during therapy was reported by patient. Improved satisfaction with appearance was reported by patients. […] This includes objective responses in patients previously refractory to standard cytotoxic therapy and in patients who have previously received other immunomodulatory drugs (e.g., thalidomide, lenalidomide, or both).
HIV infected and uninfected cohorts were evaluated separately and combined. The unacceptable ORR for further development was defined as 10% and a desirable (targeted) ORR as 40%. Up to 10 HIV negative patients were to be enrolled, with the goal of […]; that would have 83.3% probability of occurring if the true ORR were 40% and 7.0% probability of occurring if the true ORR were 10%. Up to 15 HIV positive patients were to be enrolled, with the goal of […]; that would have 90.9% probability of occurring if the true ORR were 40% and 5.6% probability of occurring if the true ORR were 10%.

[4] = Combined, 22 assessable, patients (%), 5 mg per day orally 21 of 28 days
[5] = HIV negative, 7 assessable, patients (%)
[6] = HIV positive, 15 assessable, patients (%)

## Nc1cccc2c1C(=O)N(C1CCC(=O)NC1=O)C2=O (stereo not shown) [pomalidomide, 4-amino-2-(2,6-dioxopiperidin-3-yl)isoindoline-1,3-dione]
[1]
  Plasma Serum Concentration: 300 nM
MHC-1 [2]; 10 μM for 48 hours before electroporation
  down-regulation of MHC-1 by plasmids encoding K3 or K5: prevented
MHC-1 [2]; 10 μM for 48 hours, GFP-positive cells
  prevention of MHC I knockdown, FACS analysis with K5: not consistently observed
MHC-1 [2]; 10 μM for 48 hours, K3 or K5 plasmids
  MHC I knockdown, western blots: preventing MHC I knockdown
MHC-1 [3]; FIGS. 7A-7C and FIG. 8
  down-regulation of MHC Class I expression upon lytic KSHV activation: inhibits MHC-1 down-regulation
MHC-1 [3]; FIGS. 7A-7C and FIG. 8, listed as Pomalidomide
  down-regulation of MHC Class I expression upon lytic KSHV activation: substantially more effective at preventing the down-regulation
Kaposi sarcoma; 5 mg for 21 of 28 days
  response in HIV-uninfected subjects: all HIV-uninfected subjects responded
Kaposi sarcoma; 5 mg for 21 of 28 days, symptomatic KS regardless of HIV status
  overall response rate: 73%
Kaposi sarcoma; 10 of 17 subjects with edema
  subjects with edema having evidence of improvement in tumor-associated edema: 59%
Kaposi sarcoma; [4]
  Complete Response (CR): 4 (18%)
  Partial Response (PR): 12 (55%)
  Progressive Disease (PD): 3 (14%)
Kaposi sarcoma; Combined, 22 assessable, patients (%), 5 mg per day orally 21 days of 28 day cycles
  Overall Response (CR + PR): 16 (73%)
Kaposi sarcoma; Combined, range (4-36)
  Time to Response: 4 weeks
Kaposi sarcoma; HIV negative, 7 assessable, patients
  Progressive Disease (PD): 0
Kaposi sarcoma; [5]
  Complete Response (CR): 1 (14%)
  Partial Response (PR): 6 (86%)
Kaposi sarcoma; HIV negative, 7 assessable, patients (%), 5 mg per day orally 21 of 28 days
  Overall Response (CR + PR): 7 (100%)
Kaposi sarcoma; HIV negative, range (4-36)
  Time to Response: 4 weeks
Kaposi sarcoma; [6]
  Complete Response (CR): 3 (20%)
  Partial Response (PR): 6 (40%)
Kaposi sarcoma; HIV positive, 15 assessable, patients (%), 5 mg per day orally 21 of 28 days
  Overall Response (CR + PR): 9 (60%)
Kaposi sarcoma; HIV positive, 15 assessable, patients (%), includes one subject non-adherent to ART and protocol therapy
  Progressive Disease (PD): 3 (20%)*
Kaposi sarcoma; HIV positive, range (4-32)
  Time to Response: 8 weeks
Kaposi sarcoma; including patients refractory to cytotoxic therapy or previously given other immunomodulatory drugs
  KS responses, character: responses were generally rapid, were linked to improved self reported outcomes, and occurred even in advanced and heavily pretreated KS
Kaposi sarcoma; number of subjects, of 17 with edema
  subjects in whom limb circumference showed at least a 2 cm reduction with therapy: 8
Kaposi sarcoma; one patient, after 4 weeks, FIG. 10B
  representative response of a left great toe lesion: complete flattening of the lesion
Kaposi sarcoma; same patient, 24 weeks, FIG. 10C
  representative response of a left great toe lesion: complete resolution of the lesion and a complete pathological response
